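Interpolation was linear, between the two tested concentrations surrounding the appropriate level; five concentrations were tested over 48 hours in 96-well plates. Here, GI50 denotes the concentration required for 50% inhibition of growth.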 Calls of active or inactive are those of the source. Rule as the data show it: active = GI50 up to about 1.1 µM and inactive = higher. Where a SMILES comes first, the peptide text is derived from it. [ ]: non-standard residue; d: D form. The star is where a group is joined. Phe(4-NO2) = N[CH](Cc1ccc([N+](=O)[O-])cc1)C(=O)O; Boc = CC(C)(C)OC(=O)*; OtBu = CC(C)(C)O*

Test systems include T47D; HOP-18; XF498; LXFL 529; DLD-1; M19-MEL; Hs-578T; RXF 631; SNB-78.
What all share (test): DTP human tumour cell line panel, 48 h

With `C=CC(=O)N1C/C(=C\c2ccccc2)C(=O)/C(=C/c2ccccc2)C1`, the GI50 in the test with T47D is 3.75 µM (inactive); in the test with HOP-18 it was 3.24 µM (inactive); in the test with XF498 it was 1.7 µM (inactive); in the test on LXFL 529 it was 1.33 µM (inactive); in the test with DLD-1 it was 0.458 µM (active); in the test with M19-MEL it was 0.979 µM (active).

For `OCCCNCc1ccccn1`, the GI50 with T47D and in the test on Hs-578T was > 100 µM (inactive) throughout.

In the case of `Nc1ccccc1.O=P(O)(OP(=O)(O)c1ccccc1)c1ccccc1`, the GI50 in the test on T47D and in the test with Hs-578T was > 100 µM (inactive) throughout.

With `O=[N+]([O-])c1c(/C=N/Nc2ccccc2)oc(-c2ccc3c(c2)OCO3)c1-c1ccc2c(c1)OCO2`, the GI50 with RXF 631 was 65.8 µM (inactive); in the test with XF498 it was 2.89 µM (inactive); in the test with LXFL 529, 0.746 µM (active); in the test on DLD-1, 5.73 µM (inactive); in the test on M19-MEL, 13.8 µM (inactive).

Take `CCN/C(=N\Nc1ccc([N+](=O)[O-])cc1)P(=O)(OC(C)C)OC(C)C`: the GI50 with XF498 is 66.5 µM (inactive); with SNB-78, > 100 µM (inactive); in the test with LXFL 529, > 100 µM (inactive); in the test on DLD-1 it was > 100 µM (inactive); in the test on M19-MEL, > 100 µM (inactive).

Regarding `Cc1cnc2c(c1)C(=O)C1=C(OC(C)(C)CC1O)C2=O` (stereo not drawn), the GI50 in the test on HOP-18 is 15.8 µM (inactive); in the test on RXF 631 it was > 10 µM (inactive); with XF498, 19.5 µM (inactive); in the test on LXFL 529, 16.2 µM (inactive); in the test with DLD-1, 16 µM (inactive); in the test with M19-MEL, 3.1 µM (inactive).

Turning to `CCCCC1=C(C(=O)N2CCOCC2)C2(OCCO2)C1Cl` (stereo not drawn), the GI50 in the test on T47D is 46 µM (inactive); in the test on Hs-578T, 30.1 µM (inactive).

As for `NC1=C(NC(=O)Cc2ccc(F)cc2)C(=O)c2ccccc2C1=O`, the GI50 in the test on RXF 631 is > 60.4 µM (inactive); with XF498 it was > 78.7 µM (inactive); in the test with SNB-78 it was 26.1 µM (inactive); in the test on LXFL 529, > 100 µM (inactive); in the test on DLD-1 it was > 33.3 µM (inactive); in the test with M19-MEL, 9.73 µM (inactive).

As for `c1ccc(C2=NN3CN(N2)c2ccccc2OCCCOc2ccccc23)cc1`, the GI50 with XF498, in the test on SNB-78, in the test with LXFL 529 and in the test on M19-MEL was > 100 µM (inactive) in each case.

With `Nc1ncnc2c1ncn2CC(O)C(=O)O` (stereo not drawn), the GI50 in the test on T47D is > 100 µM (inactive); in the test on HOP-18, 71 µM (inactive); in the test on Hs-578T, > 100 µM (inactive); in the test with LXFL 529, > 100 µM (inactive); with DLD-1, > 100 µM (inactive); in the test with M19-MEL it was > 100 µM (inactive).

For `CC[C@@H]1C[C@@H](O)[C@@H]2[C@H](O)[C@H](O)CN2C1`, the GI50 with T47D and in the test with Hs-578T was > 100 µM (inactive) throughout.

Consider `O=C(/C=C1\Nc2ccccc2C(=O)N1c1ccc(Cl)cc1)c1ccncc1`, for which the GI50 was 30.1 µM (inactive) with XF498; > 100 µM (inactive) with SNB-78; > 100 µM (inactive) in the test on LXFL 529; > 100 µM (inactive) in the test with DLD-1; > 100 µM (inactive) in the test on M19-MEL.

Take `O=C(c1ccccc1)C1CCCCN1C(=O)c1ccccc1` (stereo not drawn): the GI50 in the test with HOP-18, in the test on SNB-78, in the test with LXFL 529, in the test with DLD-1 and in the test with M19-MEL was > 100 µM (inactive) in each case.

With `CC1(C)C2CCC1(C)C(N/C(=C(/C(Cl)=C(Cl)Cl)[N+](=O)[O-])n1nnc3ccccc31)C2` (stereo not drawn), the values for the GI50 in the test on T47D and in the test with Hs-578T were 32.7 µM (inactive) and 17.3 µM (inactive), respectively.

With `CC[C@@]12N=C(N(C)C)C[C@]1(O)ON=C2C`, the GI50 in the test with HOP-18, in the test with XF498, with LXFL 529, with DLD-1 and with M19-MEL was > 100 µM (inactive) throughout.

As to `N#CC1C(C#N)C2(c3ccccc3)C(c3ccccc3)=NN(c3ccccc3)CC12` (stereo not drawn), the GI50 in the test on HOP-18, with XF498, in the test with SNB-78, in the test on LXFL 529, with DLD-1 and in the test on M19-MEL was > 100 µM (inactive) each time.

Take `Cn1c(O)c(C(=O)Nc2ccc([N+](=O)[O-])cc2)c(=O)n(C)c1=S`: the GI50 in the test on HOP-18 is 2.84 µM (inactive); in the test on Hs-578T, 0.617 µM (active); in the test with SNB-78, 2.18 µM (inactive); with LXFL 529, 3.3 µM (inactive); in the test on DLD-1, 3.7 µM (inactive); in the test with M19-MEL it was 3.69 µM (inactive).

On to `O=C(O)c1ccc(C2=Cc3cc(Cl)ccc3OC2)cc1`, for which the GI50 was 55.1 µM (inactive) in the test on HOP-18; > 100 µM (inactive) with XF498; > 100 µM (inactive) in the test with SNB-78; > 100 µM (inactive) in the test on LXFL 529; > 100 µM (inactive) in the test with DLD-1; > 100 µM (inactive) in the test on M19-MEL.

`CC(C)(C)c1cc(C(=O)O)c2c(c1)C(=O)OC2(c1ccccc1)c1ccccc1C(=O)O` (stereo not drawn): the GI50 with HOP-18, in the test with XF498, in the test with LXFL 529, with DLD-1 and in the test on M19-MEL was > 100 µM (inactive) each time.

In the case of `O=C1c2ccccc2N2OC3C4CCC(C4)C3C12c1ccccc1` (stereo not drawn), the GI50 was > 100 µM (inactive) in the test on HOP-18, 73.8 µM (inactive) in the test on LXFL 529, 18.3 µM (inactive) in the test on DLD-1 and 93.1 µM (inactive) in the test with M19-MEL.

As to `C=C(C)C1CC/C(C)=C/CCC2(C)OC2CC/C(CO)=C\C1O` (stereo not drawn), the GI50 is > 100 µM (inactive) with T47D and 15.7 µM (inactive) with Hs-578T.

Consider `Cc1nc2ccccc2c(=O)n1/N=C(\N=N\c1ccccc1Cl)c1ccccc1`, for which the GI50 with HOP-18 is 27.5 µM (inactive); in the test with XF498, 21.1 µM (inactive); in the test with DLD-1 it was 29.1 µM (inactive); in the test on M19-MEL it was 25.8 µM (inactive).

Turning to `COc1ccc(/C=N/N=C(\N)NO)c(O)c1`, the GI50 with T47D and in the test on Hs-578T was > 10 µM (inactive) throughout.

For the molecule `CC(C)(C)OC(=O)N1N=NC2C3OC(CC3=O)C21` (stereo not drawn), the GI50 with HOP-18, in the test with RXF 631, with SNB-78, in the test with LXFL 529 and in the test on DLD-1 was > 100 µM (inactive) in each case.

For the molecule `COC(=O)C1=C(C(=O)NNc2ccccc2)N(c2cccnc2Cl)C(c2ccccc2)=CC1c1ccccc1` (stereo not drawn), the GI50 with T47D is 26.1 µM (inactive); in the test with Hs-578T, > 100 µM (inactive).

With `O=C(OCC1CO1)c1cccs1` (stereo not drawn), the GI50 with RXF 631, with XF498, in the test with SNB-78, in the test on LXFL 529, with DLD-1 and in the test with M19-MEL was > 100 µM (inactive) in each case.

For the molecule `CC(=O)OCC1OC(N2C(=O)CC(N)=Nc3ccccc32)C(OC(C)=O)C(OC(C)=O)C1OC(C)=O` (stereo not drawn), the values for the GI50 in the test on T47D and with Hs-578T were 20.5 µM (inactive) and > 100 µM (inactive), respectively.

Consider `CC(C)/C(Cl)=N/OC(=O)Nc1ccc(Br)cc1`, for which the GI50 in the test with T47D was 2.67 µM (inactive); in the test with Hs-578T, 21.7 µM (inactive).

Regarding `O=C1C2C=CC(C2)C(c2ccc(O)cc2)N1O` (stereo not drawn), the GI50 in the test on XF498, in the test on SNB-78, with LXFL 529, with DLD-1 and with M19-MEL was > 100 µM (inactive) in each case.

Take `CNC(=S)NNC(=O)c1c(C)nc2sccn12`: the GI50 was 0.414 µM (active) in the test with HOP-18; > 100 µM (inactive) in the test with RXF 631; > 100 µM (inactive) with XF498; > 100 µM (inactive) in the test on LXFL 529; > 100 µM (inactive) in the test on DLD-1; > 100 µM (inactive) with M19-MEL.

Regarding `C=CCSC1=N/C(=C\c2ccc(C)cc2)C(=O)N1CC=C`, the GI50 in the test on T47D is 25.9 µM (inactive); with Hs-578T it was 54.8 µM (inactive).

As to `COC(=O)C1CCC(=O)N1CN(C(C)=O)c1ccccc1` (stereo not drawn), the GI50 in the test with T47D and with Hs-578T was > 100 µM (inactive) each time.

As for `COC(=O)[C@@]12C3=NO[C@]1(C(=O)OC)C(O[Si](C)(C)C(C)(C)C)[C@H]1OC(C)(C)O[C@H]1[C@@H]2C(OCc1ccccc1)CC3` (stereo partly drawn), the GI50 with HOP-18 is > 100 µM (inactive); in the test with LXFL 529 it was 60 µM (inactive); with DLD-1, 85.1 µM (inactive); with M19-MEL, 71.8 µM (inactive).

As to `C[N+]1(CCC[N+]2(C)CC3C4C=CC(CC4)C3C2)CCOCC1` (stereo not drawn), the GI50 in the test with T47D and with Hs-578T was > 100 µM (inactive) throughout.

`COc1cc(/C=C\c2ccc(O)cc2)cc(OC)c1OC`: the GI50 in the test with HOP-18 is 22.3 µM (inactive); with XF498 it was 9.98 µM (inactive); in the test with SNB-78, 3.96 µM (inactive); with LXFL 529, 4.18 µM (inactive); in the test on DLD-1, > 100 µM (inactive); with M19-MEL it was 3.66 µM (inactive).

Take `Cn1cnc([N+](=O)[O-])c1Sc1nc2ccccc2s1`: the GI50 in the test on HOP-18 was 0.286 µM (active); with RXF 631, 4.84 µM (inactive); with SNB-78 it was 12.7 µM (inactive); with LXFL 529, 10.5 µM (inactive); in the test on DLD-1, 5.07 µM (inactive); in the test on M19-MEL it was 11.5 µM (inactive).

As to `COC(=O)C(Cc1ccc([N+](=O)[O-])cc1)NC(=O)C(CC(=O)OC(C)(C)C)NC(=O)OC(C)(C)C` (stereo not drawn) (Boc-Asp(OtBu)-[Phe(4-NO2)]-OMe; configuration not given here), the GI50 was > 100 µM (inactive) in the test on T47D and 20.1 µM (inactive) with Hs-578T.

For `CCCCCCCCCCCCCC(=O)O[C@H]1CC[C@H](NC(=O)[C@H](OC)[C@H](O)[C@@H](O)[C@H](O)/C=C/C(C)C)C(=O)NC1` [BENGAMIDE A], the GI50 in the test with T47D was 0.01 µM (active); in the test on HOP-18 it was > 10 µM (inactive); in the test with XF498 it was 0.0147 µM (active); with Hs-578T, 0.237 µM (active); with SNB-78, > 10 µM (inactive); with LXFL 529, 0.00386 µM (active). Also, in the test on M19-MEL, the GI50 is 0.0033 µM (active).

On to `CC12CCC(CC1)C(C)(C)O2` [EUCALYPTOL], for which the GI50 in the test on RXF 631 was > 100 µM (inactive); in the test with XF498, 2.16 µM (inactive); with SNB-78, 67.6 µM (inactive); in the test with LXFL 529, > 100 µM (inactive); in the test with DLD-1 it was 25.9 µM (inactive); in the test with M19-MEL it was 11.5 µM (inactive).

Source of the values: ChEMBL document CHEMBL1201862, “PubChem BioAssay data set” (2004).
